For 38 compounds, CC50 and EC50 results are on record in patent US10723733B2, “Hepatitis B antiviral agents” (Enanta Pharmaceuticals, Inc., priority 2017, dated 2020).

Each structure is given as a SMILES string.

Data set [1] in a line: Compound toxicity, ATPLite total ATP levels. It is filed as cell-based. Conditions: human, HepG2 cells, 50% reduction of total ATP levels (ATPLite), three days after compound addition. On the procedure: Compound toxicity is evaluated by seeding cells at 15,000 cells/well and treating with compound as described above.
Background: In ATP-based viability assays light output follows the ATP content of the culture.

The subject of data set [2] is HBV. Put plainly: HepAD38 antiviral assay: reduction of viral product accumulation (virion DNA by qPCR, HBsAg/HBeAg by ELISA). It is filed as cell-based. Conditions: Hepatitis B virus, 120 h, HepAD38 cells, 50% reduction of viral product accumulation vs no drug controls, five days after compound addition. On the procedure: Methods: HepAD38 cells are maintained as previously reported (Ladner et al, Antimicrob. Agents Chemother. 1997, […], 1715). Briefly, cells are passaged upon attaining confluency in DMEM/F12 media in the presence of 10% FBS, Penn/Strep, 250 μg/mL G418, and 1 μg/ml tetracycline. Novel compounds are screened by first washing cells three times with PBS to remove tetracycline, and plating in 96 well plates at 35,000 cells/well. Compounds dissolved in DMSO are then diluted 1:200 into wells containing cells. Five days after compound addition, material is harvested for analysis. For an extended 8 day analysis, cells are plated and treated as described above, but media and compound are refreshed on d2 and d5 post initial treatment.
On harvest day, virion DNA is obtained by lysing with Sidestep Lysis and Stabilization Buffer and then quantified via quantitative real time PCR. Commercially available ELISA kits are used to quantitate the viral proteins HBsAg (Alpco) or HbeAg (US Biological) by following the manufacturer's recommended protocol after diluting samples to match the linear range of their respective assays. Irrespective of readout, compound concentrations that reduce viral product accumulation in the cell lysates or supernatants by 50% relative to no drug controls (EC50) are reported; EC50 ranges are as follows: A<0.1 μM; B 0.1-1 μM; C>1 μM.
(In general: In qPCR the cycle at which signal appears reflects the starting amount.)

Usually CC50 stands for the concentration at which the toxic effect on the cells reaches its halfway point. Broadly, the EC50 is the concentration at which the effect is half-maximal. High values mean lower potency in that assay, low ones higher potency in that assay. Take `CN(C)S(=O)(=O)N[C@H]1CC2=C(c3cnn(C(F)F)c3)[C@H](c3ccc(F)cc3Cl)N=C(c3nccs3)N2C1` [Example 13]: the CC50 at 3 days in data set [1] is above 25000 nM. In data set [2] (class symbols), this compound came in with a concentration giving a half-maximal response (EC50) below 100 nM. With `NS(=O)(=O)N[C@H]1CC2=C(c3cnn(C(F)F)c3)[C@H](c3ccc(F)cc3Cl)N=C(c3nccs3)N2C1` [Example 9], the CC50 at 3 days in data set [1] is above 25000 nM. For the same compound, in data set [2] (class symbols), the EC50 was below 100 nM. `O=S(=O)(N[C@H]1CC2=C(c3cnn(C(F)F)c3)[C@H](c3ccc(F)cc3Cl)N=C(c3nccs3)N2C1)C1CCOCC1` [Example 56] had a CC50 at 3 days in data set [1] above 25000 nM. For the same compound, in data set [2] (class symbols), the 50% effective concentration (EC50) was below 100 nM. In data set [1], `CS(=O)(=O)N[C@H]1CC2=C(c3cnn(C(F)F)c3)[C@H](c3ccc(F)cc3Cl)N=C(c3nccs3)N2C1` [Example 10] showed a CC50 at 3 days above 25000 nM. The compound also gave an EC50 in data set [2] (class symbols) below 100 nM. `O=S(=O)(NC1CC1)N[C@H]1CC2=C(c3cnn(C(F)F)c3)[C@H](c3ccc(F)cc3Cl)N=C(c3nccs3)N2C1` [Example 12]: the CC50 at 3 days in data set [1] fell in the range of 10000 to 25000 nM. This compound also returned an EC50 in data set [2] (class symbols) below 100 nM. For `O=S(=O)(N[C@H]1CC2=C(c3cnn(C(F)F)c3)[C@H](c3ccc(F)cc3Cl)N=C(c3nccs3)N2C1)C1CC1` [Example 1], the cytotoxic concentration (CC50) at 3 days in data set [1] is above 25000 nM. The compound further gave a concentration for a half-maximal effect (EC50) in data set [2] (class symbols) below 100 nM. On to `O=S(=O)(N[C@H]1CC2=C(c3cnn(C(F)(F)F)c3)[C@H](c3ccc(F)cc3Cl)N=C(c3nccs3)N2C1)C1CC1` [Example 8], for which, in data set [1], the 50% cytotoxic concentration (CC50) at 3 days was 10000 to 25000 nM. Also, the EC50 in data set [2] (class symbols) was below 100 nM. In the same order, the values of `COCCS(=O)(=O)N[C@H]1CC2=C(c3cnn(C(F)F)c3)[C@H](c3ccc(F)cc3Cl)N=C(c3nccs3)N2C1` [Example 57] are above 25000 nM and below 100 nM. As for `CNS(=O)(=O)N[C@H]1CC2=C(c3cnn(C(F)F)c3)[C@H](c3ccc(F)cc3Cl)N=C(c3nccs3)N2C1` [Example 11], the CC50 at 3 days in data set [1] is above 25000 nM. Besides, in data set [2] (class symbols), the concentration for a half-maximal effect (EC50) is below 100 nM. On to `O=S(=O)(N[C@H]1CC2=C(c3ccn(C4CC4)n3)[C@H](c3ccc(F)cc3Cl)N=C(c3nccs3)N2C1)C1CC1` [Example 3], for which the CC50 at 3 days in data set [1] was above 25000 nM. This compound showed an EC50 in data set [2] (class symbols) below 100 nM. In the same order, the values of `COC(=O)N[C@]1(CO)CC2=C(c3ccn(C(F)F)n3)[C@H](c3ccc(F)cc3Cl)N=C(c3nccs3)N2C1` [Example 61] are above 25000 nM and below 100 nM.

`Fc1ccc([C@@H]2N=C(c3nccs3)N3C[C@@H](OCc4ccccc4)CC3=C2c2cnn(C(F)F)c2)c(Cl)c1` [Example 25] showed a 50% effective concentration (EC50) in data set [2] (given as numeric bound) above 200 nM.

In data set [2] (given as numeric bound), `CC(C)(O)[C@]1(CC2=C(c3ccn(C(F)F)n3)[C@H](c3ccc(F)cc3Cl)N=C(c3nccs3)N2)COC(=O)N1` [Example 109] displayed a concentration for a half-maximal effect (EC50) above 400 nM. `OCC(F)(CO)CC1=C(c2cnn(C(F)F)c2)[C@H](c2ccc(F)cc2Cl)N=C(c2nccs2)N1` [Example 137] returned a concentration for a half-maximal effect (EC50) in data set [2] (class symbols) of 100 to 1000 nM. In data set [1], `O=S(=O)(N[C@H]1CC2=C(c3cnn(C4CC4)c3)[C@H](c3ccc(F)cc3Cl)N=C(c3nccs3)N2C1)C1CC1` [Example 6] displayed a cytotoxic concentration (CC50) at 3 days above 25000 nM. In data set [2] (class symbols), the 50% effective concentration (EC50) is below 100 nM. `COC(=O)OC[C@]1(CC2=C(c3ccn(C(F)F)n3)[C@H](c3ccc(F)cc3Cl)N=C(c3nccs3)N2)COC(=O)N1` [Example 96]: the 50% effective concentration (EC50) in data set [2] (class symbols) was 100 to 1000 nM. For the compound `COC(=O)/C=C/[C@]1(CC2=C(c3ccn(C(F)F)n3)[C@H](c3ccc(F)cc3Cl)N=C(c3nccs3)N2)COC(=O)N1` [Example 105], the concentration for a half-maximal effect (EC50) in data set [2] (given as numeric bound) was above 400 nM. The compound `COC(=O)[C@@]1(NC(=O)OC(C)(C)C)CC2=C(c3ccn(C(F)F)n3)[C@H](c3ccc(F)cc3Cl)N=C(c3nccs3)N2C1` [Example 64] yielded an EC50 in data set [2] (given as numeric bound) above 400 nM. Compound `[N-]=[N+]=N[C@@]1(CO)CC2=C(c3cnn(C(F)F)c3)[C@H](c3ccc(F)cc3Cl)N=C(c3nccs3)N2C1` [Example 48] returned an EC50 in data set [2] (given as numeric bound) above 400 nM. Turning to `COC(=O)[C@]1(CC2=C(c3ccn(C(F)F)n3)[C@H](c3ccc(F)cc3Cl)N=C(c3nccs3)N2)COC(=O)N1` [Example 93], the EC50 in data set [2] (class symbols) is below 100 nM. On to `COC(=O)N[C@]1(COC(C)=O)CC2=C(c3ccn(C(F)F)n3)[C@H](c3ccc(F)cc3Cl)N=C(c3nccs3)N2C1` [Example 83], for which the 50% effective concentration (EC50) in data set [2] (given as numeric bound) is above 400 nM.

Consider `CS(=O)(=O)OC[C@@]1(N=[N+]=[N-])CC2=C(c3cnn(C(F)F)c3)[C@H](c3ccc(F)cc3Cl)N=C(c3nccs3)N2C1` [Example 51], for which the EC50 in data set [2] (class symbols) lay within 100 to 1000 nM. For the compound `OC[C@@]1(F)CC2=C(c3cnn(C(F)F)c3)[C@H](c3ccc(F)cc3Cl)N=C(c3nccs3)N2C1` [Example 149], in data set [2] (class symbols), the EC50 fell in the range of 100 to 1000 nM. Compound `CS(=O)(=O)NC[C@]1(O)CC2=C(c3ccn(C(F)F)n3)[C@H](c3ccc(F)cc3Cl)N=C(c3nccs3)N2C1` [Example 118] had an EC50 in data set [2] (given as numeric bound) above 400 nM.

`O=C1N[C@@](CO)(CC2=C(c3ccn(C(F)F)n3)[C@H](c3ccc(F)cc3Cl)N=C(c3nccs3)N2)CO1` [Example 94]: in data set [1], the CC50 at 3 days is above 25000 nM. The compound further gave an EC50 in data set [2] (class symbols) below 100 nM. With `O=C1N[C@](CC2=C(c3ccn(C(F)F)n3)[C@H](c3ccc(F)cc3Cl)N=C(c3nccs3)N2)(C(=O)O)CO1` [Example 103], in data set [2] (given as numeric bound), the EC50 is above 400 nM. Turning to `Fc1ccc([C@@H]2N=C(c3nccs3)N3C(=C2c2cnn(C(F)F)c2)CC2CCCC23)c(Cl)c1` (stereo partly drawn) [Example 47], the 50% effective concentration (EC50) in data set [2] (given as numeric bound) is above 400 nM. The compound `O=S(=O)(N[C@H]1CC2=C(c3cnn(CC(F)(F)F)c3)[C@H](c3ccc(F)cc3Cl)N=C(c3nccs3)N2C1)C1CC1` [Example 7] came in with an EC50 in data set [2] (class symbols) below 100 nM. Compound `CC1(CNS(C)(=O)=O)CC2=C(c3cnn(C(F)F)c3)[C@H](c3ccc(F)cc3Cl)N=C(c3nccs3)N2C1` (stereo partly drawn) [Example 38] gave an EC50 in data set [2] (given as numeric bound) above 400 nM. The compound `COC(=O)N[C@@]1(CO)CC2=C(c3ccn(C(F)F)n3)[C@H](c3ccc(F)cc3Cl)N=C(c3nccs3)N2C1` [Example 84] returned a concentration for a half-maximal effect (EC50) in data set [2] (class symbols) below 100 nM. In turn, `OCC(CO)CC1=C(c2cnn(C(F)F)c2)[C@H](c2ccc(F)cc2Cl)N=C(c2nccs2)N1` [Example 26] yielded an EC50 in data set [2] (given as numeric bound) above 100 nM. In turn, `O=S(=O)(NCC1CC2=C(c3cnn(C(F)F)c3)[C@H](c3ccc(F)cc3Cl)N=C(c3nccs3)N2C1)C1CC1` (stereo partly drawn) [Example 33] gave a half-maximal effective concentration (EC50) in data set [2] (given as numeric bound) above 100 nM. `COC[C@@]1(NC(=O)OC)CC2=C(c3ccn(C(F)F)n3)[C@H](c3ccc(F)cc3Cl)N=C(c3nccs3)N2C1` [Example 85] yielded an EC50 in data set [2] (given as numeric bound) above 400 nM. In the case of `Fc1ccc([C@@H]2N=C(c3nccs3)NC(C[C@]3(F)CO[C@@H](c4ccccc4)OC3)=C2c2cnn(C(F)F)c2)c(Cl)c1` [Example 143], the concentration for a half-maximal effect (EC50) in data set [2] (given as numeric bound) is above 400 nM. Take `COC[C@]1(CC2=C(c3ccn(C(F)F)n3)[C@H](c3ccc(F)cc3Cl)N=C(c3nccs3)N2)COC(=O)N1` [Example 99]: in data set [2] (given as numeric bound), the 50% effective concentration (EC50) is above 400 nM. Take `C=CCOCC(F)(COC)CC1=C(c2cnn(C(F)F)c2)[C@H](c2ccc(F)cc2Cl)N=C(c2nccs2)N1` (stereo partly drawn) [Example 136]: the concentration giving a half-maximal response (EC50) in data set [2] (given as numeric bound) is above 400 nM. Compound `COC(=O)[C@]1(N)CC2=C(c3ccn(C(F)F)n3)[C@H](c3ccc(F)cc3Cl)N=C(c3nccs3)N2C1` [Example 75] had an EC50 in data set [2] (given as numeric bound) above 400 nM. `COC(=O)OC[C@]1(N=[N+]=[N-])CC2=C(c3cnn(C(F)F)c3)[C@H](c3ccc(F)cc3Cl)N=C(c3nccs3)N2C1` [Example 54] yielded a concentration giving a half-maximal response (EC50) in data set [2] (given as numeric bound) above 400 nM.
